Measurements published in ChEMBL document CHEMBL1201862, “PubChem BioAssay data set” (2004).
The source made the active and inactive calls.

Legend:
[1] = target: Glucose-6-phosphate 1-dehydrogenase (Homo sapiens, UniProt P11413); assay: inhibition of Homo sapiens G6PD, dose series – biochemical, fluorescence, selectivity assay for P. falciparum G6PD inhibitor project, dose response (AID 504792); assay type: functional
[2] = target: T1, Short transient receptor potential channel 4 (Mus musculus, UniProt Q9QUQ5); assay: block of DAMGO-driven TRPC4 calcium entry – cell-based, HEK293 TRPC4/mu-opioid, Fluo-4 calcium, dose response (AID 434942); assay type: functional;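 further: potency of inhibitors blocking the TRPC4 calcium response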
T1 sequence (Q9QUQ5 whole entry): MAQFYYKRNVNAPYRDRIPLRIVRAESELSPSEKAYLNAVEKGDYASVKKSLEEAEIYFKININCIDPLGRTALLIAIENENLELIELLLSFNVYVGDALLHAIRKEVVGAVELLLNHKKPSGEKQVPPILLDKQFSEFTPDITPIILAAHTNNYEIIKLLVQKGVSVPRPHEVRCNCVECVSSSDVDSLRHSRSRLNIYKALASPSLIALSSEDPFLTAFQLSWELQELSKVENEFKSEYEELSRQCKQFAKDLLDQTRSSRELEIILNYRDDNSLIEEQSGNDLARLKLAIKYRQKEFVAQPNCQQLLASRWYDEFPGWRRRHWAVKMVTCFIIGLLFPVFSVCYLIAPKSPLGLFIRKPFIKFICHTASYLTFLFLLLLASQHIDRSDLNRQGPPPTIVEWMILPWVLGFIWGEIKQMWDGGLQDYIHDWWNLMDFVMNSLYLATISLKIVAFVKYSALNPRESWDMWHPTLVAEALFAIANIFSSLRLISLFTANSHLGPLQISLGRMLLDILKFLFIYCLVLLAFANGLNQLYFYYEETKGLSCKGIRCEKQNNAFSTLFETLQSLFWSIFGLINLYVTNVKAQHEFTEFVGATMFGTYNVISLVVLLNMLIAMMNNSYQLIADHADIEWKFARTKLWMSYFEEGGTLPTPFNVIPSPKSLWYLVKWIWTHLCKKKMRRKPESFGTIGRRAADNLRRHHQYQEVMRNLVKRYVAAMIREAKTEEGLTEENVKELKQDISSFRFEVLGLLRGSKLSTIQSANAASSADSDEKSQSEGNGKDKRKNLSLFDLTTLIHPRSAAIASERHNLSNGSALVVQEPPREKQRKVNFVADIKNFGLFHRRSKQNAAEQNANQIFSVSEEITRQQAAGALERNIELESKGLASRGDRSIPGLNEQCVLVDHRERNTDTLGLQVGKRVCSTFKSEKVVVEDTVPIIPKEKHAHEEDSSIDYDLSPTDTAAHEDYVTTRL

Cytochrome P450 2D6 = Cytochrome P450 2D6 (Homo sapiens, UniProt P10635);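 further: CYP2D6 member of a cytochrome P450 panel assay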
Cytochrome P450 3A4 = Cytochrome P450 3A4 (Homo sapiens, UniProt P08684);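 further: CYP3A4 tested as one member of a cytochrome P450 panel screen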
Coagulation factor XII = target: T2, Coagulation factor XII (Homo sapiens, UniProt P00748); assay type: functional;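 further: activated factor XIIa alpha cleaving a fluorogenic AMC peptide substrate; inhibitor potency from loss of enzyme activity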
T2 sequence (P00748 whole entry): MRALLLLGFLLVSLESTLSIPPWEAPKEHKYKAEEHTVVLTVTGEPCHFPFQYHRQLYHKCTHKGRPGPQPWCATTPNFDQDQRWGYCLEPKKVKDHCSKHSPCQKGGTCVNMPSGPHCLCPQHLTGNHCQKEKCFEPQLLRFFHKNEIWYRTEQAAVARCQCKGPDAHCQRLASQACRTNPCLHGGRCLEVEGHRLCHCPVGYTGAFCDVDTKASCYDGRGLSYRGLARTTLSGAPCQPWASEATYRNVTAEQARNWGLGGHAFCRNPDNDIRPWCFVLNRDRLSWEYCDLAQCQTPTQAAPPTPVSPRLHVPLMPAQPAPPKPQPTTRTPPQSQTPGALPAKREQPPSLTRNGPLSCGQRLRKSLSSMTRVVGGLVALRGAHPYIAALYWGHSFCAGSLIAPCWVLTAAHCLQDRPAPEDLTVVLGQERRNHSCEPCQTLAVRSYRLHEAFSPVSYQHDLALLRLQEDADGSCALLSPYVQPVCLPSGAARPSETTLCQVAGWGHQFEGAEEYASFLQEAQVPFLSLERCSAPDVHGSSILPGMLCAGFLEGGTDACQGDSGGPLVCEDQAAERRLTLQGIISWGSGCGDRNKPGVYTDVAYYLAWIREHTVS

[3] = Luminescence Cell-Based Dose Retest to Confirm Inhibitors of Cancer Stem Cells. [Related pubchem assays (depositor defined):AID2717, AID2721]; assay type: functional; conditions: Homo sapiens
Jurkat = assay: blockers of NF-kB activation in T cells – Jurkat, luciferase reporter, luminescence, B- and T-cell, dose response (AID 489004); assay type: functional, cell-based; conditions: Homo sapiens;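 further: NF-kB luciferase reporter Jurkat cells stimulated with PMA plus ionomycin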
[4] = HEK-293T viability loss, compound-treated – cell-based, uHTS hits, cytotoxicity control for B/T-cell NF-kB inhibitor project, dose response (AID 489019); assay type: functional;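 further: IC50 reflects cytotoxicity as loss of cell viability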
Cytochrome P450 2C9 [5] = target: T3, Cytochrome P450 2C9 (Homo sapiens, UniProt P11712)
Cytochrome P450 2C19 = Cytochrome P450 2C19 (Homo sapiens, UniProt P33261); assay: Cytochrome panel assay with activity outcomes. Panel member name: p450-cyp2c19 Compounds with AC50 equal or less than 10 uM are considered active; assay type: functional; conditions: read-out: AC50
Cytochrome P450 2C9 [6] = target: T3, Cytochrome P450 2C9; remark: listed apart in the source
[7] = Luminescence Cell-Based Dose Response to Identify Activators of 5'UTR Stem-Loop Driven Prion Protein mRNA Translation in H4-C Neuroglioblastoma Cells. [Related pubchem assays: 1829 (Project Summary), 1814 (Primary HTS)]; assay type: functional
[8] = Luminescence Cell-Based Dose Confirmation HTS to Identify Activators of 5'UTR Stem-Loop Driven Alpha-Synuclein mRNA Translation in H4 Neuroglioblastoma Cells. [Related pubchem assays: 1829 (Project Summary), 1814 (Primary HTS)]; assay type: functional
[9] = Luminescence Cell-Based Dose Response HTS to Identify Activators of Luciferase Translation or Activity in H4 […] Cells. [Related pubchem assays: 1829 (Project Summary), 1814 (Primary HTS)]; assay type: functional
H4 = assay: Luminescence Cell-Based Dose Response HTS to Identify Activators of 5'UTR Stem-Loop Driven Prion Protein mRNA Translation in H4 Neuroglioblastoma Cells. [Related pubchem assays: 1829 (Project Summary), 1814 (Primary HTS)]; assay type: functional; conditions: Homo sapiens
[10] = Luminescence Cell-Based Dose Response to Identify Activators of Luciferase Translation or Activity in H4-C Neuroglioblastoma Cells. [Related pubchem assays: 1829 (Project Summary), 1814 (Primary HTS)]; assay type: functional
[11] = Luminescence Cell-Based Dose Confirmation to Identify Activators of 5'UTR Stem-Loop Driven Alpha-Synuclein mRNA Translation in H4 Neuroglioblastoma Cells. [Related pubchem assays: 1829 (Project Summary), 1814 (Primary HTS)]; assay type: functional
[12] = target: T4, Heat shock factor protein 1 (Mus musculus, UniProt P38532); assay: enhancement of HSF1-driven luciferase signal – cell-based, NIH3T3, luminescence, dose retest, confirmation (AID 435004); assay type: functional;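 further: stress induced by proteasome inhibitor MG132 added 30 min after compound; luciferase reporter driven by HSF1 response element in NIH3T3 cells; actives raise luminescence as potentiators of the MG132 stress response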
T4 sequence (P38532 whole entry): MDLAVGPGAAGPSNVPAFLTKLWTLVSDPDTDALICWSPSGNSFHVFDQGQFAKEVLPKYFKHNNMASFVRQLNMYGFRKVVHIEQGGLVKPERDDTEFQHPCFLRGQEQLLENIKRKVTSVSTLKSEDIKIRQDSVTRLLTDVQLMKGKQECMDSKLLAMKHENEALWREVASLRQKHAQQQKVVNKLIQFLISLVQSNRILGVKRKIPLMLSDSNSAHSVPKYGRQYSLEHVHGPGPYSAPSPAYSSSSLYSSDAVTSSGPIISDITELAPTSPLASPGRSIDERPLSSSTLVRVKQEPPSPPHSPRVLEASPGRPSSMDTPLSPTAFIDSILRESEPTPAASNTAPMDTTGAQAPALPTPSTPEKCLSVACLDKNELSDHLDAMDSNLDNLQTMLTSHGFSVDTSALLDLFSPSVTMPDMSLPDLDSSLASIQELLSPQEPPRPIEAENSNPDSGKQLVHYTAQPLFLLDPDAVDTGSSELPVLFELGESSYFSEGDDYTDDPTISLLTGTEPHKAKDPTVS

Cytochrome P450 1A2 = target: T5, Cytochrome P450 1A2 (Homo sapiens, UniProt P05177);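 further: PubChem cytochrome P450 panel assay, CYP1A2 panel member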
T5 sequence (P05177 whole entry): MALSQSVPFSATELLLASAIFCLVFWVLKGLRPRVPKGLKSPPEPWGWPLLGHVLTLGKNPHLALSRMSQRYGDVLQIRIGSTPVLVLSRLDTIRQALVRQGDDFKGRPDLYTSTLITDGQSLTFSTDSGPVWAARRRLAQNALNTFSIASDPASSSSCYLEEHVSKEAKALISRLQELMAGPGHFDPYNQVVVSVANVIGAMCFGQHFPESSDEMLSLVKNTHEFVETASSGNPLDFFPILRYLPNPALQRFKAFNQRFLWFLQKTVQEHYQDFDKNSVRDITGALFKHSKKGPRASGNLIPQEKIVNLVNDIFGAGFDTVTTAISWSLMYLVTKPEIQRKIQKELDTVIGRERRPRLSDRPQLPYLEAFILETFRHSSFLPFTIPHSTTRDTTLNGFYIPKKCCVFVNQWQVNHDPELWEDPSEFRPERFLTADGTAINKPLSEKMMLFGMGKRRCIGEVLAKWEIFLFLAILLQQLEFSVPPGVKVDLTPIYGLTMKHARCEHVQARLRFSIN

Chain of Cytochrome P450 3A4 (P08684 whole entry): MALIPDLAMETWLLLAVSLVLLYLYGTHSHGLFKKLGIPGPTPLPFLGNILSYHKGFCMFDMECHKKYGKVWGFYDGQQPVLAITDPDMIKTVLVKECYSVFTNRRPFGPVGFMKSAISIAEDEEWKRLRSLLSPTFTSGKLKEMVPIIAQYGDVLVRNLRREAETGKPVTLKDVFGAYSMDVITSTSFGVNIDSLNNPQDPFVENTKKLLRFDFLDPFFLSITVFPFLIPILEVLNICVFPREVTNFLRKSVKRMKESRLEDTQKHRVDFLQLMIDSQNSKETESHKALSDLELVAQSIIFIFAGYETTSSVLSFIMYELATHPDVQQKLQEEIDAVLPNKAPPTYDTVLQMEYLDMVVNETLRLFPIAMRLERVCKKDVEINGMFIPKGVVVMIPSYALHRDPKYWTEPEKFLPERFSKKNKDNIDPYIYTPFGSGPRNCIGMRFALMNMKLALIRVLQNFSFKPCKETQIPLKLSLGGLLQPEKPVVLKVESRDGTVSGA
T3 sequence (P11712 whole entry): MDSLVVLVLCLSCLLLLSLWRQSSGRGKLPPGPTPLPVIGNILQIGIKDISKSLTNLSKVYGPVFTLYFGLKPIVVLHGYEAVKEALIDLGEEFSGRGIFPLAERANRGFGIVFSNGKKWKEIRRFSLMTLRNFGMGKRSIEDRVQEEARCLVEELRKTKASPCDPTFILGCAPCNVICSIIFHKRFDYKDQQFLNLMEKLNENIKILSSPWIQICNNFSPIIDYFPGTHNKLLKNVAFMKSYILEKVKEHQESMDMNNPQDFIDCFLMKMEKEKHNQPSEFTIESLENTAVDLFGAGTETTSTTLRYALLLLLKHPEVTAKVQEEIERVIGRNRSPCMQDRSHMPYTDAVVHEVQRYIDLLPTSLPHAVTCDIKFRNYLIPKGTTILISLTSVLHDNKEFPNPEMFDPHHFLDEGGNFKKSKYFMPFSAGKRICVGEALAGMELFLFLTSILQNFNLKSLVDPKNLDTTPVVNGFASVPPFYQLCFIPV
Chain of Cytochrome P450 2D6 (P10635 whole entry): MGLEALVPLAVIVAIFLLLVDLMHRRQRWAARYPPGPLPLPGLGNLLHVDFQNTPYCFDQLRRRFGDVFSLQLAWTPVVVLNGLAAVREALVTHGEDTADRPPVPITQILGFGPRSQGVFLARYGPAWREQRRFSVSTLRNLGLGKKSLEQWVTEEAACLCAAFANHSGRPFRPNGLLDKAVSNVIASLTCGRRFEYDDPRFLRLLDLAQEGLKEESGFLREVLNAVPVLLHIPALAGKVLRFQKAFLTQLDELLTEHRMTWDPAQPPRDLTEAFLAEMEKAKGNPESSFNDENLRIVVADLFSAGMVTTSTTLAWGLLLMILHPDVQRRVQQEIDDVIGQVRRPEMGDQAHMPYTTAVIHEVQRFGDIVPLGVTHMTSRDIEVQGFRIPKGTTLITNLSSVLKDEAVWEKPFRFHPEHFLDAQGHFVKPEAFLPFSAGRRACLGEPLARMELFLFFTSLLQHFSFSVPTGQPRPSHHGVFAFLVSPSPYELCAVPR
Chain of Glucose-6-phosphate 1-dehydrogenase (P11413 whole entry): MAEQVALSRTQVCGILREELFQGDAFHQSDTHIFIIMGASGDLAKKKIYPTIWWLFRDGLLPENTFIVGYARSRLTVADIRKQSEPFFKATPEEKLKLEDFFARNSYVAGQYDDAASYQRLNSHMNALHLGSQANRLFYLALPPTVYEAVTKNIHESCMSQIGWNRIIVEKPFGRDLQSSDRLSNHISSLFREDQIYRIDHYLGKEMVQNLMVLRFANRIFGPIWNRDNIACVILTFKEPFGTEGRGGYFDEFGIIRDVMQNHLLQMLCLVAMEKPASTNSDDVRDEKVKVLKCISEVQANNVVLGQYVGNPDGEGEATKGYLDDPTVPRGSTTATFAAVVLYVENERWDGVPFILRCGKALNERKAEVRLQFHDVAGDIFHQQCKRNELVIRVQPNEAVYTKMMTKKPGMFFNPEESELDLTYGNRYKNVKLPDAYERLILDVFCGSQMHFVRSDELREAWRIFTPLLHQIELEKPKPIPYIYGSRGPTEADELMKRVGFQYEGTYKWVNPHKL
Chain of Cytochrome P450 2C19 (P33261 whole entry): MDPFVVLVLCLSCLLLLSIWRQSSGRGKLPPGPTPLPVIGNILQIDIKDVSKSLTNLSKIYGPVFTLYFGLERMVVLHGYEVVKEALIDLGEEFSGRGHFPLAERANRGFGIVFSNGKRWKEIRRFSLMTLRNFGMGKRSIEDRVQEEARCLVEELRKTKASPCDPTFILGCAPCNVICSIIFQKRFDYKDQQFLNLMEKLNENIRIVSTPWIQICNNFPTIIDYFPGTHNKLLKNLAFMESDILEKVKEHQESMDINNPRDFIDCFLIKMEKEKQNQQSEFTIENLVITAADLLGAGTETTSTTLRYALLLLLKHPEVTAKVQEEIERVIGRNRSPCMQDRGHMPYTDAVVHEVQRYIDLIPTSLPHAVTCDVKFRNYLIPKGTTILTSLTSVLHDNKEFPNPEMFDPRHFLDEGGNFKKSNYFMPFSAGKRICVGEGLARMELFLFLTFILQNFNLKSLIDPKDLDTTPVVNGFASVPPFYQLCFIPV

Compound: O=C1C(c2cc(O)c3ccccc3n2)=C(O)c2ccccc21
- IC50 [1]: 53.4 µM (inactive)

Compound: COCCn1c(SCC(=O)c2ccccc2)nc2ccccc2c1=O
- EC50 [2]: 0.376 µM (active)

Compound: COc1cc2c(cc1OC)[C@H](c1ccccc1)CN(C)CC2
- AC50 (Cytochrome P450 2D6): 31.6 µM (inconclusive)
- AC50 (Cytochrome P450 3A4): inconclusive

Compound: COC(=O)Cc1c(C)nc2ncnn2c1O
- IC50 (Coagulation factor XII): > 50 µM (inactive)

Compound: CC(=O)O[C@H]1[C@H]2O[C@]23[C@@H]2CC[C@]4(O)C[C@@H](O)CC[C@]4(C)[C@H]2CC[C@]3(C)[C@H]1c1ccc(=O)oc1 [CINOBUFOTALIN]
- AC50 [3]: < 0.16 µM (active)
- IC50 (Jurkat): 3.19 µM (active)
- IC50 [4]: > 80 µM (inactive)

Compound: OC1(c2ccc(Cl)cc2)CCN(Cc2c[nH]c3ccccc23)CC1
- AC50 (Cytochrome P450 3A4): inconclusive
- AC50 (Cytochrome P450 2C9 [5]): inconclusive

Compound: CCOC(=O)c1ccc(N2C(=O)CC(Nc3ccc(CCO)cc3)C2=O)cc1 (stereo not given)
- AC50 (Cytochrome P450 2C19): 8.91 µM (inconclusive)
- AC50 (Cytochrome P450 2C9 [6]): 6.31 µM (inconclusive)
- AC50 (Cytochrome P450 3A4): inconclusive

Compound: c1csc(-c2nc(N3CCCCC3)no2)c1
- EC50 [7]: 0.38 µM (active)
- EC50 [8]: < 0.1 µM (active)
- EC50 [9]: < 0.1 µM (active)
- EC50 (H4): 1.22 µM (active)
- EC50 [10]: 0.36 µM (active)
- EC50 [11]: 0.29 µM (active)

Compound: CN(NC1OC(=O)c2ccccc21)c1ncc(Cl)cc1C(F)(F)F (stereo not given)
- IC50 (Coagulation factor XII): > 50 µM (inactive)
- EC50 [12]: > 260 µM (inactive)

Compound: Cc1cc([N+](=O)[O-])nn1Cc1ccccc1F
- IC50 (Jurkat): > 80 µM (inactive)
- IC50 [4]: > 80 µM (inactive)
- AC50 (Cytochrome P450 1A2): 22.4 µM (inconclusive)
- AC50 (Cytochrome P450 2C9 [5]): inconclusive

Compound: COc1ccc(OC)c(C2C3=C(O)OCC3=Nc3cc4c(cc32)OCO4)c1 (stereo not given)
- IC50 (Jurkat): > 80 µM (inactive)
- IC50 [4]: > 80 µM (inactive)
- AC50 (Cytochrome P450 2D6): 22.4 µM (inconclusive)
- AC50 (Cytochrome P450 1A2): 10 µM (inconclusive)
- AC50 (Cytochrome P450 2C9 [6]): 7.94 µM (inconclusive)
